Results reported in ChEMBL document CHEMBL5726597, “TrkA kinase inhibitors, compositions and methods thereof” (2017).

Target: High affinity nerve growth factor receptor (Homo sapiens, UniProt P04629)
Assay: Functional Activity Assay: TrkA functional activity was measured using a DiscoverX PathHunter assay. In this assay, U2OS cells express the human TrkA receptor as a fusion with the weakly complementing fragment of B-galactosidase, which DiscoverX calls “Prolink (PK)”; additionally, Shcl is fused with a larger fragment, which is called “Enzyme Acceptor (EA)”. Activation of the TrkA receptor, upon NGF addition, results in the kinase domain being phosphorylated, resulting in subsequent recruitment of Shcl-EA protein. That recruitment results in an active B-galactosidase enzyme that is detected by addition of a chemiluminescent substrate. The human p75NTR protein was also expressed as a co-receptor for NGF.All reagents were purchased from DiscoverX, except for the receptor agonists (NGF, BDNF, NT3) which were purchased from Peprotech. Cells were expanded and frozen into cryovials, and stored in the vapor phase of liquid nitrogen, and thawed immediately before use. Thawed cells were added to a 384-well plate at 7500 cells/well, and allowed to incubate overnight. Compound at various concentrations was added the following morning and allowed to incubate on cells for 1 h. Then, NGF was added at a concentration sufficient to elicit ˜80% of a maximal response and allowed to incubate for 3 h at ambient temperature.

High affinity nerve growth factor receptor, sequence (P04629 whole entry, the tested form may be a part): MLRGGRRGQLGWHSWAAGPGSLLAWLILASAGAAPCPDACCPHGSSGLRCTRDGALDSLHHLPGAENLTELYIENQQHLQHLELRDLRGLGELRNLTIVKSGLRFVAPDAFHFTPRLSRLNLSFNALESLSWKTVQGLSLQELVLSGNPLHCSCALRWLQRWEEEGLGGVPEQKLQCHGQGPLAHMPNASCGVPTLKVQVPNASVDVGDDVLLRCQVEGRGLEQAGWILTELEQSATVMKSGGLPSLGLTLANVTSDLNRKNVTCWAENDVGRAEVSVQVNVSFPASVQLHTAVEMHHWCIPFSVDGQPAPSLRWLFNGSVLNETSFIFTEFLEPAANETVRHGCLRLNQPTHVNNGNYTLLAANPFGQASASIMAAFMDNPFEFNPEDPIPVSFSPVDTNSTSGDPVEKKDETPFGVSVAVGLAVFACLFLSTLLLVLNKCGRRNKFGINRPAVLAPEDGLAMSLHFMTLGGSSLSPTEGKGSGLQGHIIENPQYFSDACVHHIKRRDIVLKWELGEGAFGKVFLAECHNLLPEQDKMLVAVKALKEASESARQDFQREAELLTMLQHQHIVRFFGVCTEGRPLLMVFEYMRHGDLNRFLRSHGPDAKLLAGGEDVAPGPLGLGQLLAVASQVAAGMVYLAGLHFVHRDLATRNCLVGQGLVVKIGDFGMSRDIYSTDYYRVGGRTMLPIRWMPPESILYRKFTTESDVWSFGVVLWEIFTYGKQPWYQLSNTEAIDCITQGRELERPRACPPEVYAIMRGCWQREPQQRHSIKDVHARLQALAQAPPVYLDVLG

- IC50: 1 nM
Structure (SMILES): Cc1ncc(NC(=O)c2cc(-c3ccn(C)n3)c(C(F)(F)F)cc2F)c(-c2ccccc2)n1
